In general, Kd refers to a measure of binding affinity in units of concentration. By EC50 is commonly meant the concentration needed to bring the measured effect to its halfway point. Low readings indicate higher potency in that assay, high ones lower potency in that assay.

The values that follow come from ChEMBL document CHEMBL1122223, “New developments in Ca2+ channel antagonists” (J Med Chem, 1983).

Test [1] is filed under the species Rattus norvegicus. Briefly: Inhibition of [Ca2+] uptake in rat aorta, K+. The following applies: read-out: ID50.
Test [2] is filed under the species Rattus norvegicus. As to the kind of experiment: Inhibition of contraction in rat aorta, K+. The following applies: read-out: ID50.
The nature of test [3]: Dissociation constant for binding to isolated membranes from clonal cell line.
The subject of the next test is PC-12. As to the kind of experiment: Ability to block depolarization induced 45Ca uptake into pheochromocytoma PC12 cells. Format: functional, cell-based. As to conditions: Rattus norvegicus.
The species entered for test [4] is Rattus norvegicus. As to the kind of experiment: Effective concentration for negative inotropic effect. The test is classed as functional, organism-based.
A short description of test [5]: Dissociation constant for high affinity binding sites in intact cultured cardiac cells.
The nature of test [6]: Dissociation constant for low affinity binding sites in intact cultured cardiac cells.
Test [7] is filed under the species Cavia porcellus. As to the kind of experiment: [Ca2+] antagonistic activity on [Ca2+] current in guinea pig single ventricular cells. Format: functional. The following applies: read-out: ID50 (the source's name).
The species entered for test [8] is Oryctolagus cuniculus. As to the kind of experiment: Inhibition of contraction in rabbit aorta, K+. The test is classed as functional. As to conditions: read-out: ID50 (the source's name).
The species named for test [9] is Oryctolagus cuniculus. As to the kind of experiment: Inhibition of [Ca2+] uptake in rabbit aorta, K+. As to conditions: read-out: ID50 (the source's name). The test is classed as functional.
Test [10] is filed under the species Cavia porcellus. Briefly: Antagonistic activity against ACh in guinea pig ileum. As to conditions: read-out: ID50 (the source's name). Format: functional.
Test [11] is filed under the species Felis catus. Briefly: [Ca2+] antagonistic activity on [Ca2+] current in cat papillary. The test is classed as functional, Papillary muscle.
The species entered for test [12] is Cavia porcellus. As to the kind of experiment: Antagonistic activity against K+ induced responses in guinea pig ileum. Format: functional. The following applies: read-out: ID50 (the source's name).
Test [13] is filed under the species Felis catus. As to the kind of experiment: [Ca2+] antagonistic activity on [Ca2+] current in cat ventricular trabeculae. The test is classed as functional.
For test [14], the species on record is Cavia porcellus. As to the kind of experiment: [Ca2+] antagonistic activity on contraction in guinea pig atria. Format: functional. As to conditions: read-out: ID50 (the source's name).
The species entered for test [15] is Canis familiaris. Briefly: Antagonistic activity against K+ induced responses in canine coronary. The test is classed as functional, Canis lupus familiaris.
The species entered for test [16] is Canis familiaris. As to the kind of experiment: Antagonistic activity against norepinephrine induced contraction in canine coronary. The test is classed as functional, Canis lupus familiaris.
Test [17] is filed under the species Oryctolagus cuniculus. As to the kind of experiment: Antagonistic activity against 5-HT induced responses in rabbit basilar. Format: functional.
Test [18] is filed under the species Oryctolagus cuniculus. As to the kind of experiment: Antagonistic activity against 5-HT in rabbit saphenous. Format: functional, Saphenous vein.
The species named for test [19] is Oryctolagus cuniculus. As to the kind of experiment: Antagonistic activity against K+ induced responses in rabbit saphenous. Format: functional, Saphenous vein.
For test [20], the species on record is Oryctolagus cuniculus. Briefly: Antagonistic activity against K+ induced responses in rabbit basilar. Format: functional.
Test [21] is filed under the species Oryctolagus cuniculus. As to the kind of experiment: Inhibition of contraction in rabbit pulmonary artery, K+. The test is classed as functional. The following applies: read-out: ID50 (the source's name).
The species named for test [22] is Canis familiaris. Briefly: Antagonistic activity against ACh induced responses in canine trachea. Format: functional. As to conditions: Canis lupus familiaris, read-out: ID50 (the source's name).
The species entered for test [23] is Oryctolagus cuniculus. As to the kind of experiment: Antagonistic activity against K+ induced responses in rabbit aorta. The test is classed as functional. The following applies: read-out: ID50 (the source's name).
Test [24] is filed under the species Oryctolagus cuniculus. Briefly: Antagonistic activity against norepinephrine (NE) induced responses in rabbit aorta. Format: functional. The following applies: read-out: ID50 (the source's name).
For test [25], the species on record is Canis familiaris. As to the kind of experiment: Antagonistic activity against K+ induced responses in canine trachea. The test is classed as functional. As to conditions: Canis lupus familiaris, read-out: ID50 (the source's name).
Test [26] is filed under the species Oryctolagus cuniculus. Briefly: Inhibition of [Ca2+] uptake in rabbit pulmonary artery, K+. Format: functional. As to conditions: read-out: ID50 (the source's name).

Regarding `Fc1ccc(C(c2ccc(F)cc2)N2CCN(C/C=C/c3ccccc3)CC2)cc1` [FLUNARIZINE], the IC50 in the test listed under Rattus norvegicus [1] was 0.18 µM; in the test filed under Rattus norvegicus [2], 0.22 µM.

With `CCOC(=O)C1=C(C)NC(C)=C(C(=O)OC)C1c1cccc([N+](=O)[O-])c1` (stereo not given) [NITRENDIPINE], the Kd in [3] worked out at 0.01 µM; in test [5] it was 0.00026 µM; in test [6], 0.016 µM. For the same molecule, the IC50 in the test with PC-12 was 0.01 µM; in the test filed under Cavia porcellus [7], 0.2 µM. For the same molecule, in the test filed under Rattus norvegicus [4], the concentration giving a half-maximal response (EC50) stood at 0.028 µM.

Take `COc1ccc([C@@H]2Sc3ccccc3N(CCN(C)C)C(=O)[C@@H]2OC(C)=O)cc1` [DILTIAZEM]: the values for the IC50 in the test filed under Oryctolagus cuniculus [8] and in the test filed under Oryctolagus cuniculus [9] were 0.5 µM and 0.3 µM, respectively.

On to `COC(=O)C1=C(C)NC(C)=C(C(=O)OC)C1c1ccccc1[N+](=O)[O-]` [NIFEDIPINE], for which the IC50 was found to be 0.005 µM in the test listed under Cavia porcellus [10], 0.003 µM in the test listed under Cavia porcellus [12] and 1 µM in the test listed under Cavia porcellus [14]. The ID50 in the test filed under Felis catus [11] and in the test filed under Felis catus [13] was 0.6 µM each time.

Regarding `COc1ccc(CCN(C)CCCC(C#N)(c2cc(OC)c(OC)c(OC)c2)C(C)C)cc1OC` (stereo not given) [GALLOPAMIL], the figures for the IC50 in the test listed under Oryctolagus cuniculus [8], in the test filed under Oryctolagus cuniculus [9] and in the test filed under Cavia porcellus [14] were 0.2 µM, 0.15 µM and under 1 µM, respectively. In addition, the ID50 in the test listed under Canis familiaris [15] is 0.2 µM; in the test filed under Canis familiaris [16] it was 0.5 µM.

Consider `COCCOC(=O)C1=C(C)NC(C)=C(C(=O)OC(C)C)C1c1cccc([N+](=O)[O-])c1` (stereo not given) [NIMODIPINE], for which the ID50 was 0.0007 µM in the test filed under Oryctolagus cuniculus [17], over 0.0001 M in the test listed under Oryctolagus cuniculus [18], 0.0003 µM in the test listed under Oryctolagus cuniculus [19] and 0.0002 µM in the test filed under Oryctolagus cuniculus [20].

On to `COC(=O)C1=C(C)NC(C)=C(C(=O)OCCN(C)Cc2ccccc2)C1c1cccc([N+](=O)[O-])c1` (stereo not given) [NICARDIPINE], for which the IC50 was determined as 0.0019 µM in the test filed under Oryctolagus cuniculus [8] and 0.001 µM in the test listed under Oryctolagus cuniculus [9].

On to `COc1ccc(CCN(C)CCCC(C#N)(c2ccc(OC)c(OC)c2)C(C)C)cc1OC` (stereo not given) [VERAPAMIL], for which the IC50 in the test filed under Oryctolagus cuniculus [21] is 0.4 µM; in the test filed under Canis familiaris [22], over 1000 µM; in the test filed under Oryctolagus cuniculus [8], 0.17 µM; in the test listed under Oryctolagus cuniculus [9] it was 0.0068 µM; in the test listed under Oryctolagus cuniculus [23] it was 0.03 µM; in the test filed under Oryctolagus cuniculus [24], 100 µM. For the same molecule, the IC50 in the test listed under Canis familiaris [25] is under 1000 µM; in the test listed under Oryctolagus cuniculus [26] it was 0.3 µM. Further, in the test listed under Felis catus [13], the ID50 is under 10 µM.
